Measured values from paper PMC9024338, “Bruceine H Mediates EGFR-TKI Drug Persistence in NSCLC by Notch3-Dependent β-Catenin Activating FOXO3a Signaling” (Frontiers in Oncology, 2022).

What was measured:
A549 xenografts = A549 xenografts in BALB/c nude mice; type: in vivo
Experimental: The total proteins of cells and tissues were extracted with RIPA cleavage buffer containing a protease inhibitor cocktail, phenylmethylsulfonyl fluoride (PMSF, Solarbio). The cell lysates (20 μg) were run on SDS-polyacrylamide gel (6%–10%) and transferred to the polyvinylidene fluoride membrane (PVDF, Millipore, MA, USA) by electrophoresis. The membrane was blocked with 5% skim milk in TBST for 2 h, incubated overnight with the corresponding primary antibody at 4°C, and then incubated with the corresponding secondary antibody at room temperature for 2 h. The reaction products were detected by chemiluminescence by ECL Western Blotting Detection System. Finally, quantitative analysis was carried out with ImageJ software.
The heart, liver, spleen, lung, kidney, and tumor tissues were embedded in paraffin, and the sections (4 µm) were stained with hematoxylin–eosin (H&E, Solarbio) and then examined and analyzed under a Leica DM6B microscope (Leica Microsystems, Wetzlar, Germany).
The tumor section was dewaxed and repaired with antigen, 3% H2O2 was added, and then the section was sealed with 10% goat serum at room temperature for 30 min. The first antibody against Ki-67 and Notch3 (CST) was incubated overnight at 4°C, and the second antibody was incubated at room temperature for 30 min. After DAB staining, the sections were counterstained with hematoxylin for 2 min and then observed and analyzed under a Leica microscope.
The animal procedures were approved by the Ethics Committee of the Experimental Animal Center of Jiangxi University of Chinese Medicine (Nanchang, China, SCXK 2016-0006) and conducted following the Guide for the Care and Use of Laboratory Animals. Four-week-old male BALB/c nude mice (weighing 16–17 g, SPF grade) were obtained from Shanghai Shrek Experimental Animal Co., Ltd. (Shanghai, China). The xenotransplantation model was established by subcutaneous injection of A549 or PC-9/GR cells in nude mice, which were collected with PBS and mixed with an equal volume of Matrigel at a final concentration of 1 × 10^7/ml. […] Measurements of tumor size and body weight were conducted every 2 days with a vernier caliper and an electronic balance. Nodule growth was quantified by using the following formula: tumor volume (mm^3) = (short-diameter)^2 × large-diameter × π/6.

PC-9 cells = assay: Apoptosis by flow cytometry (Annexin V-FITC/PI), PC-9; type: cell-based, human; details: PC-9, 48 h, various concentrations, relative to control
Experimental: (§1) After being digested with trypsin without EDTA, the cells were washed gently with culture medium and twice with cold PBS. The pellet was resuspended in 400 μl of 1× binding buffer, the resuspended cells were transferred to flow tubes, then Annexin V-FITC (5 μl) and propidium iodide (10 μl) were added, and the mixture was incubated for 15 min at room temperature in the dark. The percentage of apoptotic cells was determined by flow cytometry (Backman, CA, USA) and FlowJo V10 software.

16HBE cells = assay: Toxicity to normal human cell line 16HBE (Figure S1); type: cell-based
Experimental: Figure S1. The toxicity of Bruceine H (BH) and Bruceine D (BD) to 16HBE (A) and LO2 (B) cells was evaluated.

PC-9/GR cells = assay: Apoptosis by flow cytometry (Annexin V-FITC/PI), PC-9/GR; type: cell-based, human; details: low-dose BH (4, 8 μM), gefitinib 25 μM, alone or combined
Experimental: as §1

Structure (SMILES): CC1=CC(=O)[C@@H](O)[C@]2(C)[C@H]3[C@@H](O)[C@H](O)[C@@]4(CO)OC[C@@]35[C@@H](C[C@@H]12)OC(=O)[C@H](O)[C@]54O [BH, Bruceine H]
- growth of A549 xenografts (A549 xenografts; 2.5 or 5 mg/kg intragastric, 16 days): significantly inhibited
- organ indexes of heart, kidney, liver, lung, spleen (A549 xenografts; A549 xenograft mice): no significant changes
- body weight (A549 xenografts; A549 xenograft mice, 2.5 and 5 mg/kg): without significant changes
- Notch3 expression in tumor xenografts (A549 xenografts; A549 xenografts, IHC, vs model group): decreased in a dose-dependent manner
- number of Ki-67-positive cells in cancer tissues (A549 xenografts; A549 xenografts, IHC, vs vehicle): decreased
- Notch3, β-catenin, and Bcl-2 protein levels in tumor tissues (A549 xenografts; A549 xenografts, Western blot): decreased
- expression of FOXO3a in tumor tissues (A549 xenografts; A549 xenografts, Western blot): increased
- late apoptotic rate (PC-9 cells): increased
- toxicity to 16HBE cells (16HBE cells): no apparent toxicity
- apoptosis of PC-9/GR cells (PC-9/GR cells): little effects
